The structures appear in SMILES notation.

The term inhibition of growth denotes the percentage by which the read-out fell short of the control.

Assay [1] deals with Glomerella lagenarium syn Colletotrichum lagenarium. Briefly: Glomerella lagenarium syn. Colletotrichum lagenarium (anthracnose), liquid culture growth inhibition. The format is cell-based. The following applies: Colletotrichum orbiculare, PDB nutrient broth, 24° C., 72 hrs, 620 nm, vs untreated control. As to the method:
Conidia of the fungus from cryogenic storage were directly mixed into nutrient broth (PDB potato dextrose broth). A DMSO solution of the test compounds was placed into a microtiter plate (96-well format) and the nutrient broth containing the fungal spores was added to it. The test plates were incubated at 24° C. and the inhibition of growth was determined photometrically after 72 hrs at 620 nm.

Assay [2] relates to Botryotinia fuckeliana syn. Botrytis cinerea. The assay can be described thus: Botryotinia fuckeliana syn. Botrytis cinerea (gray mould), liquid culture growth inhibition. Conditions: PDB nutrient broth, 24° C., 72 hrs, photometric, vs untreated control. The format is cell-based. The method, then:
Conidia of the fungus from cryogenic storage were directly mixed into nutrient broth (PDB potato dextrose broth). A DMSO solution of the test compounds was placed into a microtiter plate (96-well format) and the nutrient broth containing the fungal spores was added to it. The test plates were incubated at 24° C. and the inhibition of growth was determined photometrically after 72 hrs.

The compound `Cc1nccc(C(=O)NCC(F)c2ccc(Cl)cc2Cl)c1Oc1cccc(C2CC2)c1` (centres unmarked) [Compound 1.12, 3-(3-cyclopropyl-phenoxy)-N-[2-(2,4-dichlorophenyl)-2-fluoro-ethyl]-2-methyl-pyridine-4-carboxamide] gave an inhibition of growth at 20 ppm in assay [1] of at least 80%.
In the case of `Cc1cc(C(=O)NCC(F)c2ccc(Cl)cc2Cl)c(Oc2cccc(C3CC3)c2)c(Cl)n1` (centres unmarked) [Compound 1.17, 2-chloro-3-(3-cyclopropyl-phenoxy)-N-[2-(2,4-dichlorophenyl)-2-fluoro-ethyl]-6-methyl-pyridine-carboxamide], the inhibition of growth at 20 ppm in assay [1] and in assay [2] was at least 80% in each case.
With `O=C(NCCc1ccc(Cl)cc1Cl)c1cc(C(F)(F)F)ncc1Oc1cccc(C2CC2)c1` [Compound 1.19, 5-(3-cyclopropyl-phenoxy)-N-[2-(2,4-dichlorophenyl)ethyl]-2-(trifluoromethyl) pyridine-4-carboxamide], the inhibition of growth at 20 ppm in assay [1] was at least 80%.
Same read-out and setting: under `N#Cc1ccccc1CCNC(=O)c1cc(Cl)ncc1Oc1cccc(C2CC2)c1` [Compound 1.23, 2-chloro-N-[2-(2-cyanophenyl)ethyl]-5-(3-cyclopropyl-phenoxy)pyridine-4-carboxamide] stands at least 80%.
In the case of `O=C(NCCc1ccc(Cl)cc1)c1cc(Cl)ncc1Oc1cccc(C2CC2)c1` [Compound 1.24, 2-chloro-N-[2-(4-chlorophenyl)ethyl]-5-(3-cyclopropyl-phenoxy)pyridine-4-carboxamide], the inhibition of growth at 20 ppm in assay [1] and in assay [2] was at least 80% in each case.
`COc1ccc(CCNC(=O)c2cc(Cl)ncc2Oc2cccc(C3CC3)c2)cc1OC` [Compound 1.26, 2-chloro-5-(3-cyclopropyl-phenoxy)-N-[2-(3,4-dimethoxyphenyl)ethyl]pyridine-4-carboxamide] returned an inhibition of growth at 20 ppm in assay [1] of at least 80%.
Same read-out and setting: next, `O=C(NCCc1ccccc1)c1cc(Cl)ncc1Oc1cccc(C2CC2)c1` [Compound 1.29, 2-chloro-5-(3-cyclopropyl-phenoxy)-N-(2-phenylethyl) pyridine-4-carboxamide]: at least 80%.
For `O=C(NCCc1ccc(F)cc1)c1cc(Cl)ncc1Oc1cccc(C2CC2)c1` [Compound 1.31, 2-chloro-5-(3-cyclopropyl-phenoxy)-N-[2-(4-fluorophenyl)ethyl]pyridine-4-carboxamide], the inhibition of growth at 20 ppm in assay [1] is at least 80%.
For `O=C(NCC(F)(F)c1ccc(F)cc1F)c1cc(Cl)ncc1Oc1cccc(C2CC2)c1` [Compound 1.32, 2-chloro-5-(3-cyclopropyl-phenoxy)-N-[2-(2,4-difluorophenyl)-2,2-difluoro-ethyl]pyridine-4-carboxamide], the inhibition of growth at 20 ppm in assay [1] and in assay [2] was at least 80% throughout.
The compound `O=C(NCCc1ccccc1Cl)c1cc(Cl)ncc1Oc1cccc(C2CC2)c1` [Compound 1.33, 2-chloro-N-[2-(2-chlorophenyl)ethyl]-5-(3-cyclopropyl-phenoxy)pyridine-4-carboxamide] returned an inhibition of growth at 20 ppm in assay [1] of at least 80%.
Still for that read-out and setting: under `N#Cc1ccc(CCNC(=O)c2cc(Cl)ncc2Oc2cccc(C3CC3)c2)cc1` [Compound 1.34, 2-chloro-N-[2-(4-cyanophenyl)ethyl]-5-(3-cyclopropyl-phenoxy) pyridine-4-carboxamide] stands at least 80%.
`Cc1cc(C(=O)NC[C@H](F)c2ccc(Cl)cc2Cl)c(Oc2cccc(C3CC3)c2)cn1` [Compound 1.42, 5-(3-cyclopropyl-phenoxy)-N-[(2R)-2-(2,4-dichlorophenyl)-2-fluoro-ethyl]-2-methyl-pyridine-4-carboxamide]: the inhibition of growth at 20 ppm in assay [1] and in assay [2] was at least 80% each time.
For `O=C(NCCc1ccc(Cl)cc1Cl)c1cc(Cl)ncc1Oc1ccccc1` [Compound 1.45, 2-chloro-N-[2-(2,4-dichlorophenyl)ethyl]-5-phenoxy-pyridine-4-carboxamide], the inhibition of growth at 20 ppm in assay [2] was at least 80%.
For `Cc1cccc(Oc2cnc(Cl)cc2C(=O)NCCc2ccc(Cl)cc2)c1` [Compound 1.47, 2-chloro-N-[2-(4-chlorophenyl)ethyl]-5-(3-methylphenoxy) pyridine-4-carboxamide], the inhibition of growth at 20 ppm in assay [1] and in assay [2] was at least 80% each time.
Turning to `Cc1ccc(CCNC(=O)c2cc(Cl)ncc2Oc2cccc(C3CC3)c2)cc1` [Compound 1.53, 2-chloro-5-(3-cyclopropyl-phenoxy)-N-[2-(p-tolyl)ethyl]pyridine-4-carboxamide], the inhibition of growth at 20 ppm in assay [1] and in assay [2] was at least 80% in each case.
As to `Cc1cccc(Oc2cnc(Cl)cc2C(=O)NCCc2ccccc2Cl)c1` [Compound 1.54, 2-chloro-N-[2-(2-chlorophenyl)ethyl]-5-(3-methylphenoxy) pyridine-4-carboxamide], the inhibition of growth at 20 ppm in assay [2] was at least 80%.
Still for that read-out and setting: under `COc1ccc(CCNC(=O)c2cc(Cl)ncc2Oc2cccc(C)c2)cc1` [Compound 1.55, 2-chloro-N-[2-(4-methoxyphenyl)ethyl]-5-(3-methylphenoxy) pyridine-4-carboxamide] stands at least 80%.
For the compound `Cc1ccc(CCNC(=O)c2cc(Cl)ncc2Oc2cccc(C)c2)cc1` [Compound 1.57, 2-chloro-5-(3-methylphenoxy)-N-[2-(p-tolyl)ethyl]pyridine-4-carboxamide], the inhibition of growth at 20 ppm in assay [1] and in assay [2] was at least 80% throughout.
As for `Cc1cccc(Oc2cnc(Cl)cc2C(=O)NCC(F)c2ccc(F)cc2F)c1` (centres unmarked) [Compound 1.59, 2-chloro-N-[2-(2,4-difluorophenyl)-2-fluoro-ethyl]-5-(3-methylphenoxy) pyridine-4-carboxamide], the inhibition of growth at 20 ppm in assay [2] is at least 80%.
The same measure, in the same setting: next, `O=C(NCC(F)c1ccc(Cl)cc1Cl)c1cc(Cl)ncc1Oc1ccc(F)c(F)c1` (centres unmarked) [Compound 1.62, 2-chloro-N-[2-(2,4-dichlorophenyl)-2-fluoro-ethyl]-5-(3,4-difluorophenoxy) pyridine-4-carboxamide]: at least 80%.
For `CCOc1cccc(Oc2cnc(Cl)cc2C(=O)NCC(F)c2ccc(Cl)cc2Cl)c1` (centres unmarked) [Compound 1.65, 2-chloro-N-[2-(2,4-dichlorophenyl)-2-fluoro-ethyl]-5-(3-ethoxyphenoxy) pyridine-4-carboxamide], the inhibition of growth at 20 ppm in assay [1] was at least 80%.
Consider `CCc1cccc(Oc2cnc(Cl)cc2C(=O)NCC(F)c2ccc(Cl)cc2Cl)c1` (centres unmarked) [Compound 1.66, 2-chloro-N-[2-(2,4-dichlorophenyl)-2-fluoro-ethyl]-5-(3-ethylphenoxy) pyridine-4-carboxamide], for which the inhibition of growth at 20 ppm in assay [1] and in assay [2] was at least 80% throughout.
Turning to `O=C(NCC(F)c1ccc(Cl)cc1Cl)c1cc(Cl)ncc1Oc1ccccc1` (centres unmarked) [Compound 1.67, 2-chloro-N-[2-(2,4-dichlorophenyl)-2-fluoro-ethyl]-5-phenoxy-pyridine-4-carboxamide], the inhibition of growth at 20 ppm in assay [2] is at least 80%.
`N#Cc1cncc(Oc2cccc(C3CC3)c2)c1C(=O)NCC(F)c1ccc(Cl)cc1Cl` (centres unmarked) [Compound 1.97, 3-cyano-5-(3-cyclopropyl-phenoxy)-N-[2-(2,4-dichlorophenyl)-2-fluoro-ethyl]pyridine-4-carboxamide] had an inhibition of growth at 20 ppm in assay [1] of at least 80%.

Values taken from patent US20240182420A1, “MICROBIOCIDAL ISONICOTINIC AMIDE DERIVATIVES” (SYNGENTA CROP PROTECTION AG, priority 2021, published 2024).
